Test results published in PMC11091220, “Metabolism-driven in vitro/in vivo disconnect of an oral ERɑ VHL-PROTAC” (Communications Biology, 2024).
Values joined by “and” are separate entries in the source; they are usually repeats but may differ in a detail not shown here. Equal entries are not always repeated.

How the values were obtained:
[1] = tested on: PGR mRNA; test: PD study in CTC174 PDX model, tumour PGR mRNA by qPCR; assay type: in vivo, mouse; settings: 100 mg/kg BID, 4 days, individual animals; listed as AZ'6421
[2] = tested on: ER-regulated genes; test: Gene expression analysis of ER-regulated genes (qPCR), MCF7 and CAMA1 cells; assay type: cell-based; settings: 100 nM, 0.1 nM estradiol, 24 hours
Protocol: MCF7 and CAMA1 cells were plated at 1.2 x 10^6 cells/well into 6-well TC-treated plates in phenol red-free RPMI containing 5% charcoal-stripped FBS (F6765, Sigma) and treated with 0.1 nM estradiol in the presence of 100 nM fulvestrant, 100 nM AZD9833, 100 nM AZ’6421 or DMSO control for 24 hours. A non-estradiol-treated control was also included with 3 biological replicates per condition. Samples were harvested in 1 mL of QIAzol Lysis Buffer and snap-frozen. RNA was extracted using the RNeasy 96 QIAcube HT total RNA Cell with DNAse treatment following manufacturer instructions. Samples were randomized over 96-well plates. RNA concentration was quantified using the Qubit RNA BR kit (# Q10213 Invitrogen) and RNA integrity was analyzed on a bioanalyzer using the RNA 6000 Nano Kit (# 5067-1511-Agilent) following the manufacturer’s instructions. Targeted gene expression was performed using a 48 × 48 or 96 × 96 Fluidigm dynamic array (Fluidigm, San Francisco CA, USA) and Taqman primers (Thermo Scientific, Waltham, MA). […] The Fluidigm Array was then primed and loaded on an IFC Controller and quantitative PCR (qPCR) experiments were run on the Biomark System, using the standard Default_10 min_HotStart protocol or M96_default protocol for 48 × 48 or 96 × 96 chips, respectively. Data were collected and analysed using the Fluidigm Real-Time PCR Analysis software to generate the Ct values. […]

[3] = tested on: CTC174 patient-derived xenograft (PDX) model; test: Efficacy study in CTC174 PDX model, tumour growth; assay type: in vivo, mouse
Protocol: CTC174 (ER/PR positive, HER2-negative patient-derived xenograft (PDX) model) studies were conducted following implantation of a tumour fragment in female NSG mice; established tumours were removed from donor mice and dissected into 3x3x3 mm pieces in RPMI 1640 media. Female NOD scid gamma (NSG) mice were anesthetized using 2% isoflurane, a small incision was made through the skin, 0.5 cm dorsally to the third nipple, and a tumour fragment was inserted between the skin layer and the third mammary fat pad. The skin was closed with surgical glue (VetBond, 3 M).
Mice were randomised into groups of 8-10 once tumour sizes reached approximately 0.2 cm^3. AZ’6421 was dosed orally at 30 mg/kg QD or 100 mg/kg BID using EF3, alongside a vehicle control. AZD9833 was dosed at 10 mg/kg PO, QD. Tumours were measured twice per week and changes in tumour volume and growth inhibition were determined by bilateral Vernier caliper measurement (length x width), where length was taken to be the longest diameter across the tumour and width the corresponding perpendicular. Tumour volume was calculated using the formula (length x width) x √ (length x width) x π/6). Tumour growth inhibition from the start of the study to the final day of tumour measurement was assessed by comparison of the geometric mean change in tumour volume for the control and treated groups. Tumour regression was calculated as the percentage reduction in tumour volume from baseline (pre-treatment) value (where relative tumour volume [RTV] = geometric mean RTV): %regression=(1−RTV)×100% Statistical significance was evaluated using a one-tailed t-test compared to vehicle control at the day of final tumour measures.

[4] = target: T1, ERα (Homo sapiens, UniProt P03372); test: Western blot analysis of ERα in MCF7 cells (dose response, MG132, VHL ligand and cpd 8 competition); assay type: cell-based; settings: Figure 6f, read-out: ERa % of control
T1 construct: endogenous in cells; host or cells: MCF7 (also MCF7 engineered to express Cas9)
T1 sequence (P03372 1-595): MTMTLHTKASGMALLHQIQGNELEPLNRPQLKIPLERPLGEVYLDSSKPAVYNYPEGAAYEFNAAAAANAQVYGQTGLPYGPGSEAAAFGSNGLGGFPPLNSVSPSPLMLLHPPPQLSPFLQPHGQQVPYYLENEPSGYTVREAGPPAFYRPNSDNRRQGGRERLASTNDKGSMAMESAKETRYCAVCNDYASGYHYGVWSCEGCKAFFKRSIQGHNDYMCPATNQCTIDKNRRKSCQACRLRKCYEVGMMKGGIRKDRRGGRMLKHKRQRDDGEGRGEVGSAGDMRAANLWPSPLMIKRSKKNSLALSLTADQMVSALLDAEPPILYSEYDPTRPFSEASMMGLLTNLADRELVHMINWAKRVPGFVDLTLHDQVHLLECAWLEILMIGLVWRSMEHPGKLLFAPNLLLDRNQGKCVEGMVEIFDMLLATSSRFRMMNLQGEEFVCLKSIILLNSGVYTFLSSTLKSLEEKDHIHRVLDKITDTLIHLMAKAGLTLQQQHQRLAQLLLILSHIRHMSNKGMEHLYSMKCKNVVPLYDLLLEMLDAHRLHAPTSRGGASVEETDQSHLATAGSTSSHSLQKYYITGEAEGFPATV

Cc1ncsc1-c1ccc(CNC(=O)[C@@H]2C[C@@H](O)CN2C(=O)[C@@H](NC(=O)COCCCOCCCOc2cc(F)c([C@@H]3c4[nH]c5ccccc5c4C[C@@H](C)N3CC(C)(C)F)c(F)c2)C(C)(C)C)cc1 [Compound 5]
PGR mRNA expression in tumour (% of vehicle) [1]: 12.5811% and 15.4178% and 10.0087% and 25.9295% and 45.882% | expression of ER-regulated genes [2]: effectively supressed the expression of a range of ER-regulated genes | effect on tumour growth ([3]; 30 mg/kg QD, CTC174 PDX): no significant effect on tumour growth | individual tumour volume relative to day 0 ([3]; 30mg/kg, day 0): 1 | individual tumour volume relative to day 0 ([3]; 30mg/kg, day 3, listed as AZ'6421): 0.7122 and 1.194 | individual tumour volume relative to day 0 ([3]; 30mg/kg, day 24, listed as AZ'6421): 0.687 and 1.553 and 0.9229 and 3.138 and 3.998 and 5.933 and 2.313 and 1.402 | individual tumour volume relative to day 0 ([3]; 30mg/kg, day 28, listed as AZ'6421): 0.8313 and 2.512 and 0.8896 and 2.922 and 2.315 and 6.135 and 3.14 and 1.905 | individual tumour volume relative to day 0 ([3]; 30mg/kg, day 31, listed as AZ'6421): 0.7668 and 3.025 and 1.034 and 3.595 and 3.598 and 7.563 and 4.273 and 1.656 | individual tumour volume relative to day 0 ([3]; 30mg/kg, day 32, listed as AZ'6421): 0.5475 and 2.09 and 0.9038 and 4.599 and 4.337 and 8.487 and 4.5171 and 1.317 | individual tumour volume relative to day 0 ([3]; 30mg/kg, day 35, listed as AZ'6421): 0.7044 and 2.34 and 1.039 and 4.934 and 5.34 and 5.3436 and 1.76 | tumour growth inhibition ([3]; 100 mg/kg BID, CTC174 PDX): 86% | individual tumour volume relative to day 0 ([3]; 100mg/kg BID, day 0): 1 | individual tumour volume relative to day 0 ([3]; 100mg/kg BID, day 3, listed as AZ'6421): 0.8229 and 1.103 and 0.6717 and 0.9409 and 1.283 and 1.22 and 0.8606 | individual tumour volume relative to day 0 ([3]; 100mg/kg BID, day 24, listed as AZ'6421): 0.798 and 1.29 and 1.172 and 1.123 and 1.125 and 1.792 and 0.9657 and 0.7632 | individual tumour volume relative to day 0 ([3]; 100mg/kg BID, day 28, listed as AZ'6421): 1.185 and 1.364 and 1.661 and 0.8768 and 1.158 and 1.79 and 0.955 | individual tumour volume relative to day 0 ([3]; 100mg/kg BID, day 31, listed as AZ'6421): 1.384 and 1.261 and 1.388 and 0.978 and 1.011 and 2 and 1.056 | individual tumour volume relative to day 0 ([3]; 100mg/kg BID, day 32, listed as AZ'6421): 1.118 and 1.021 and 1.453 and 0.5782 and 0.607 and 1.779 and 0.9427 | individual tumour volume relative to day 0 ([3]; 100mg/kg BID, day 35, listed as AZ'6421): 0.7796 and 0.7051 and 1.086 and 0.6654 and 0.8654 and 1.332 and 0.777

C[C@@H]1Cc2c([nH]c3ccccc23)[C@@H](c2c(F)cc(OCCC(=O)O)cc2F)N1CC(C)(C)F [Compound 8]
remaining activity at 0.001 µM ([4]; 1 nM): 51.3% | remaining activity at 0.01 µM ([4]; 10 nM): 51.6% | remaining activity at 0.03 µM ([4]; 30 nM): 47.7% | remaining activity at 0.1 µM ([4]; 100 nM): 29.2% | remaining activity at 0.3 µM ([4]; 300 nM): 46.3% | remaining activity at 1 µM ([4]; 1000 nM): 42%
